# Tested on: Plasmodium berghei
# Assay: Luciferase/luciferin-expressing antifolate-resistant parasites were used to infect a culture of HepG2 cells that were pre-incubated with compounds. Infected hepatocytes emit light due to the luciferase reaction. Assay results are presented as the percent inhibition of light emission compared to control. […]
# Type: functional
# Settings: sporozoite; for IC90: read-out: LUCIFERASE INFECTION ASSAY - IC90
# [1] = read-out: LUCIFERASE INFECTION ASSAY - IC50
Structure (SMILES),IC90,further results
CCN(CC)c1ccc(/C=C2\CCC(/C=N/NC(=O)NC3CCCCC3)=C2N2CCOCC2)cc1,> 10 µM,IC50 [1]: > 10 µM
CN(Cc1cn(-c2ccccc2)nc1-c1ccccc1)C(=O)NCCCc1nc2ccccc2[nH]1,> 10 µM,IC50 [1]: > 10 µM
CNc1ccccc1C(C)(C)c1cc(-c2ccc(C(C)C)cc2)n[nH]1,> 10 µM,"IC50 (HEPG2TOX_HILL_SLOPE 0.485, HEPG2TOX_R_SQUARED 0.452, PBLUC_HILL_SLOPE 15.6, PBLUC_R_SQUARED 0.572, read-out: LUCIFERASE INFECTION ASSAY - IC50): 8.84 µM"
CC(C)c1ccc(-n2c(-c3ccccc3)c[n+]3c2CCc2ccccc2-3)cc1,1.23 µM,"IC50 (HEPG2TOX_HILL_SLOPE 1.23, HEPG2TOX_R_SQUARED 0.988, PBLUC_HILL_SLOPE 3.39, PBLUC_R_SQUARED 0.644, read-out: LUCIFERASE INFECTION ASSAY - IC50): 0.642 µM"
COC(=O)C1=C(C)NC(C)=C(C(=O)OC)C1c1cc(NC(=O)c2cccc(OC(F)F)c2)ccc1OC(F)F,8.9 µM,"IC50 (PBLUC_HILL_SLOPE 3.17, PBLUC_R_SQUARED 0.755, read-out: LUCIFERASE INFECTION ASSAY - IC50): 4.45 µM"
CCCCc1[nH]nc2ccnc(-c3ccc(CO)cc3)c12,> 10 µM,"IC50 (HEPG2TOX_HILL_SLOPE 1.75, HEPG2TOX_R_SQUARED 0.977, read-out: LUCIFERASE INFECTION ASSAY - IC50): > 10 µM"
O=C(NCCC(=O)N1CCc2sccc2C1c1ccccc1)c1ccsc1 (configuration not stated),5.51 µM,"IC50 (PBLUC_HILL_SLOPE 101, PBLUC_R_SQUARED 0.289, read-out: LUCIFERASE INFECTION ASSAY - IC50): 5.39 µM"
O=C1CCCN1c1ccc(C2=NNC(=NC3CC3)SC2)cc1,0.932 µM,"IC50 (FFLUC_HILL_SLOPE 1.46, FFLUC_R_SQUARED 0.93, PBLUC_HILL_SLOPE 0.517, PBLUC_R_SQUARED 0.899, read-out: LUCIFERASE INFECTION ASSAY - IC50): 0.0133 µM"
CCCc1nc(C)c(C(=O)Nc2nccn2Cc2ccccc2)s1,> 10 µM,IC50 [1]: > 10 µM
COc1ccc(C(=O)OCC(=O)Nc2sccc2C(N)=O)cc1S(=O)(=O)N1CCCCC1C (configuration not stated),> 10 µM,"IC50 (HEPG2TOX_HILL_SLOPE 5.31, HEPG2TOX_R_SQUARED 0.826, PBLUC_HILL_SLOPE 1.98, PBLUC_R_SQUARED 0.24, read-out: LUCIFERASE INFECTION ASSAY - IC50): 5.17 µM"
COC(=O)c1c(NC(=O)c2ccoc2)c2cc(NC(C)CC(F)(F)F)cnc2n1CC(C)C (configuration not stated),> 7.07 µM,IC50 [1]: > 7.07 µM
CN(C)c1cccc(-c2cnc3cnc(-c4cccnc4)cn23)c1,> 10.5 µM,"IC50 (PBLUC_HILL_SLOPE 3.32, PBLUC_R_SQUARED 0.395, read-out: LUCIFERASE INFECTION ASSAY - IC50): 8.6 µM"
Oc1cccc(-c2cnc3cnc(-c4cc5ccccc5s4)cn23)c1,8.34 µM,"IC50 (HEPG2TOX_HILL_SLOPE 18.8, HEPG2TOX_R_SQUARED 0.771, PBLUC_HILL_SLOPE 3.35, PBLUC_R_SQUARED 0.418, read-out: LUCIFERASE INFECTION ASSAY - IC50): 4.33 µM"
COc1cc2c(C#N)c(N3CCN(c4ccccc4OC)CC3)nc(N)c2c(N)n1,4.7 µM,"IC50 (HEPG2TOX_HILL_SLOPE 3.01, HEPG2TOX_R_SQUARED 0.942, PBLUC_HILL_SLOPE 1.46, PBLUC_R_SQUARED 0.909, read-out: LUCIFERASE INFECTION ASSAY - IC50): 1.04 µM"
CC(C)N(Cc1ccccc1)C(=S)NC(=O)C1(C)CC1(Cl)Cl (configuration not stated),> 10 µM,IC50 [1]: > 10 µM
CSc1ncc(C(=O)OCc2cc(F)cc3c2OCOC3)n1-c1ccc(F)cc1,> 10 µM,"IC50 (PBLUC_HILL_SLOPE 2.14, PBLUC_R_SQUARED 0.0712, read-out: LUCIFERASE INFECTION ASSAY - IC50): 5.17 µM"
O=C(Nc1nonc1-c1ccc(F)cc1)c1sc2ccccc2c1Cl,7.47 µM,"IC50 (HEPG2TOX_HILL_SLOPE 12, HEPG2TOX_R_SQUARED 0.71, PBLUC_HILL_SLOPE 5.14, PBLUC_R_SQUARED 0.171, read-out: LUCIFERASE INFECTION ASSAY - IC50): 4.87 µM"
CC(N)c1csc(NC(=O)c2cccnc2Oc2ccccc2)n1 (configuration not stated),5.22 µM,IC50 [1]: 3.09 µM
O=[N+]([O-])c1c[nH]c(-c2csc(-n3nccc3C(F)(F)F)n2)c1,4.09 µM,IC50 [1]: 1.82 µM
O=C(Cc1coc2cc3c(cc12)CCC3)OCc1nccn1C(F)F,> 10 µM,"IC50 (PBLUC_HILL_SLOPE 0.616, PBLUC_R_SQUARED 0.411, read-out: LUCIFERASE INFECTION ASSAY - IC50): > 10 µM"
CCOC(=O)c1sc(SC)c2c1CC(c1ccccc1)CC2=O (configuration not stated),> 9.52 µM,IC50 [1]: > 9.52 µM

Structure (SMILES),IC90,further results
CCOC(=O)c1c(C2CC2)csc1NC(=O)COC(=O)c1cc(C)n(-c2cc(Cl)ccc2OC)c1C,> 10 µM,"IC50 (FFLUC_HILL_SLOPE 35.2, FFLUC_R_SQUARED 0.269, read-out: LUCIFERASE INFECTION ASSAY - IC50): > 10 µM"
Cc1ccc(-c2ccccc2C(=O)OCC(=O)Nc2ccc(C)c(Cl)c2)cc1,> 10 µM,"IC50 (FFLUC_HILL_SLOPE 49.8, FFLUC_R_SQUARED 0.336, read-out: LUCIFERASE INFECTION ASSAY - IC50): > 10 µM"
Nc1ccc(C(OC(=O)c2ccc(Cl)cc2Cl)(C(F)(F)F)C(F)(F)F)cc1,> 10 µM,"IC50 (PBLUC_HILL_SLOPE 1.55, PBLUC_R_SQUARED 0.496, read-out: LUCIFERASE INFECTION ASSAY - IC50): 8.08 µM"
CC(C)[C@H](NC(=O)c1ccccc1Cl)C(=O)Nc1nc(-c2ccccn2)cs1,6.36 µM,"IC50 (HEPG2TOX_HILL_SLOPE 4.61, HEPG2TOX_R_SQUARED 0.937, PBLUC_HILL_SLOPE 2.78, PBLUC_R_SQUARED 0.749, read-out: LUCIFERASE INFECTION ASSAY - IC50): 2.89 µM"
O=C1/C(=C/c2ccc(C(F)(F)F)cc2)CCC/C1=C\c1ccc(C(F)(F)F)cc1,7.87 µM,"IC50 (HEPG2TOX_HILL_SLOPE 11.7, HEPG2TOX_R_SQUARED 0.984, PBLUC_HILL_SLOPE 3.19, PBLUC_R_SQUARED 0.77, read-out: LUCIFERASE INFECTION ASSAY - IC50): 3.95 µM"
CN(C)c1cccc(-c2cnc3sc(NCCc4ccc(S(N)(=O)=O)cc4)nn23)c1,> 7.46 µM,"IC50 (FFLUC_HILL_SLOPE 1.97, FFLUC_R_SQUARED 0.664, read-out: LUCIFERASE INFECTION ASSAY - IC50): > 7.46 µM"
Oc1c(Cl)cc(Cl)cc1-c1ccn[nH]1,> 14.4 µM,IC50 [1]: > 14.4 µM
Cc1onc(-c2ccc(Cl)cc2Cl)c1-c1csc(Nc2ccc(Cl)cc2)n1,> 7.56 µM,"IC50 (FFLUC_HILL_SLOPE 2.37, FFLUC_R_SQUARED 0.46, PBLUC_HILL_SLOPE 2.86, PBLUC_R_SQUARED 0.233, read-out: LUCIFERASE INFECTION ASSAY - IC50): 6.39 µM"
CC(C)Cc1ccc(C(=O)CC2OC(=O)c3ccccc32)cc1 (configuration not stated),> 10.7 µM,"IC50 (FFLUC_HILL_SLOPE 1.52, FFLUC_R_SQUARED 0.66, PBLUC_HILL_SLOPE 3.96, PBLUC_R_SQUARED 0.504, read-out: LUCIFERASE INFECTION ASSAY - IC50): 8.38 µM"
Nc1cccc2c1C(=O)N(C(=O)/C=C/c1cccc(F)c1)C2=O,> 10 µM,"IC50 (HEPG2TOX_HILL_SLOPE 0.728, HEPG2TOX_R_SQUARED 0.696, PBLUC_HILL_SLOPE 1.8, PBLUC_R_SQUARED 0.344, read-out: LUCIFERASE INFECTION ASSAY - IC50): 8.07 µM"
COc1ccc(C(=O)Nc2ccc3nc(-c4ccccc4)nn3c2)cc1OC,> 10 µM,IC50 [1]: > 10 µM
Cn1nc(-c2ccc(Cl)cc2)cc1N,> 15.9 µM,"IC50 (FFLUC_HILL_SLOPE 24.2, FFLUC_R_SQUARED 0.094, read-out: LUCIFERASE INFECTION ASSAY - IC50): > 15.9 µM"
O=[N+]([O-])c1cc(Cl)cc(/C=N/Nc2cc(C(F)(F)F)ccc2Cl)c1O,> 10 µM,"IC50 (FFLUC_HILL_SLOPE 3.01, FFLUC_R_SQUARED 0.379, HEPG2TOX_HILL_SLOPE 2.46, HEPG2TOX_R_SQUARED 0.824, read-out: LUCIFERASE INFECTION ASSAY - IC50): > 10 µM"
O=C(Nc1cc(Cl)cc(Cl)c1)c1cc(Cl)ccc1O,1.1 µM,"IC50 (HEPG2TOX_HILL_SLOPE 1.87, HEPG2TOX_R_SQUARED 0.915, PBLUC_HILL_SLOPE 2.8, PBLUC_R_SQUARED 0.713, read-out: LUCIFERASE INFECTION ASSAY - IC50): 0.502 µM"
COc1ccc(NC(=O)C(C(=O)Nc2ccc(OC)cc2)C23CC4CC(CC(C4)C2)C3)cc1,> 10 µM,IC50 [1]: 7.12 µM
CN(Cc1nccn1C(F)F)c1ncnc2sccc12,> 10 µM,IC50 [1]: > 10 µM
C=CCN(c1ccc(Cl)cc1)S(=O)(=O)c1cccc(C(=O)C(C#N)c2nc3ccccc3n2C)c1 (configuration not stated),3.88 µM,"IC50 (HEPG2TOX_HILL_SLOPE 10.3, HEPG2TOX_R_SQUARED 0.536, PBLUC_HILL_SLOPE 9.9, PBLUC_R_SQUARED 0.166, read-out: LUCIFERASE INFECTION ASSAY - IC50): 3.1 µM"
O=C(NN=c1nc[nH]c2ccccc12)c1c(O)c(O)cc2ccccc12,1.34 µM,"IC50 (HEPG2TOX_HILL_SLOPE 1.23, 1.37, HEPG2TOX_R_SQUARED 0.873, 0.334, PBLUC_HILL_SLOPE 12.1, 7.99, PBLUC_R_SQUARED 0.334, 0.684, read-out: LUCIFERASE INFECTION ASSAY - IC50): 1.07 µM"
Nc1c(C(=O)Nc2cc(Cl)cc(Cl)c2)sc(Nc2ccccc2)c1C(=O)Nc1ccc(Cl)cc1,> 10 µM,"IC50 (FFLUC_HILL_SLOPE 1.81, FFLUC_R_SQUARED 0.586, read-out: LUCIFERASE INFECTION ASSAY - IC50): > 10 µM"
N=C(Nc1cc(Cl)cc(Cl)c1)Nc1ncc(C(=O)c2ccccc2O)cn1,> 10 µM,"IC50 (PBLUC_HILL_SLOPE 2.46, PBLUC_R_SQUARED 0.348, read-out: LUCIFERASE INFECTION ASSAY - IC50): 5.29 µM"
